The source made the active and inactive calls.
Tests used:
[1] = viability of PTEN-deleted HCT116 cells – cell-based, HCT116 PTEN knockout, dose response (AID 1047); type: functional;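 further: HCT116 colon tumor cells with PTEN knocked out; cells exposed to compound for 60 hours before readout; potency for loss of cell viability measured by luminescence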
[2] = viability of HCT116 lacking mutant beta-catenin – cell-based, human colon tumor, dose response (AID 1045); type: functional;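 further: HCT116 colon tumor cells with beta catenin knocked out; cells exposed to compound for 60 hours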
[3] = reduction of Shn3 3'UTR-driven luciferase in osteoblasts – cell-based, Clone20 osteoblasts, firefly luciferase, cherry-picked, dose response (AID 624132); type: functional;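 further: firefly luciferase luminescence from reporter carrying the Shn3 3'UTR in osteoblasts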
[4] = loss of viability in HepG2 cells – cell-based, CellTiter-Glo, cherry-picked, cytotoxicity control for Shn3 inhibitor project, dose response (AID 624134); type: functional
[5] = non-specific 3'UTR reporter inhibition in Clone20-Shn3RL – cell-based, Renilla luciferase, cherry-picked, counter-screen for Shn3 inhibitor project, dose response (AID 624133); type: functional
[6] = target: T1, Corticotropin-releasing factor receptor 2/Corticotropin-releasing factor-binding protein (Homo sapiens, UniProt P24387+Q13324); test: Dose Response confirmation of uHTS hits for small molecule antagonists of the CRF-binding protein and CRF-R2 receptor complex.; type: functional; conditions: read-out: IC50_Mean
T1 sequence (Q13324 whole entry): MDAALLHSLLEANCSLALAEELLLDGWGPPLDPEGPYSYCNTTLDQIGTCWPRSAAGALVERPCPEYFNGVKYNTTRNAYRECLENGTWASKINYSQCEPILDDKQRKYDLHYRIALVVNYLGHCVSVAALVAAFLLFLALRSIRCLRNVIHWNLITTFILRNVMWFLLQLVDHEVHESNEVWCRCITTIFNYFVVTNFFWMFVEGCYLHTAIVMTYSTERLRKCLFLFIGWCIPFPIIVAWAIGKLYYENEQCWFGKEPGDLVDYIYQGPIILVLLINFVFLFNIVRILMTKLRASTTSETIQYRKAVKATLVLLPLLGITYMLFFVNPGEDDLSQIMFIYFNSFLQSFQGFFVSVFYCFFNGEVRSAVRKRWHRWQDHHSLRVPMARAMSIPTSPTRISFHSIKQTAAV
T1 sequence (P24387 whole entry): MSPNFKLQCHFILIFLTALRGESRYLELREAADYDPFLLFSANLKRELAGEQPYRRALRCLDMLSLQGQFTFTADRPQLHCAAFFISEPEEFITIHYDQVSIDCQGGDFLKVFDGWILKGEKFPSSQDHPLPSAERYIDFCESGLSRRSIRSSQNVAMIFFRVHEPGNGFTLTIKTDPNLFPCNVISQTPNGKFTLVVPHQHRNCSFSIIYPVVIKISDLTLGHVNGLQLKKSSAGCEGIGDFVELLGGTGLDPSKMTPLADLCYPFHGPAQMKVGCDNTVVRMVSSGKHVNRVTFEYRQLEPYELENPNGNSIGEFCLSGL

[7] = target: T1, Corticotropin-releasing factor receptor 2/Corticotropin-releasing factor-binding protein; test: activators of CRF receptor 2 with binding protein – uHTS hits, confirmation (AID 602473); type: functional; conditions: read-out: EC50_Mean
[8] = target: T2, DNA repair protein RAD52 homolog (Homo sapiens, UniProt P43351); type: functional, biochemical
T2 sequence (P43351 whole entry): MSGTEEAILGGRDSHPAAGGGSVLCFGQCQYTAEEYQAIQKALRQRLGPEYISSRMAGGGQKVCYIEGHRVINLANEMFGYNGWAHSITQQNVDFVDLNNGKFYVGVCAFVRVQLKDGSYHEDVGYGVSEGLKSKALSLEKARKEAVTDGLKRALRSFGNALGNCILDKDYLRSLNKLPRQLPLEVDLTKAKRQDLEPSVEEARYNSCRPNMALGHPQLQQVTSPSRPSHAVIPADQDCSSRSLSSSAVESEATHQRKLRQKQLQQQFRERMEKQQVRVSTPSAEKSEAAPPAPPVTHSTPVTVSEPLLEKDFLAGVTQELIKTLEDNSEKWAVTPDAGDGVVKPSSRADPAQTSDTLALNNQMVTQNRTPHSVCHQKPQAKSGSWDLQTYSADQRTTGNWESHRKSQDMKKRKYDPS

[9] = target: T3, Carboxy-terminal domain RNA polymerase II polypeptide A small phosphatase 1 (Homo sapiens, UniProt Q9GZU7); test: CTDSP1 inhibitors, concentration-response, biochemical, absorbance readout, ultra-high-throughput screen actives (AID 540297); type: functional
T3 sequence (Q9GZU7 whole entry): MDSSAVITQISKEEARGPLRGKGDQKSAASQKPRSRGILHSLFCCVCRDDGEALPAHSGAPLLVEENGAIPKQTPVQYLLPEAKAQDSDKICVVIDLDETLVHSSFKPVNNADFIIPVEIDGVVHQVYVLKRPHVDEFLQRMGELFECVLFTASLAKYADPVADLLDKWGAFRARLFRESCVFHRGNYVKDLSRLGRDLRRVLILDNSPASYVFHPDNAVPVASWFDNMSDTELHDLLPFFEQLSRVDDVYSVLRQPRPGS

[10] = activation of miR-122 Renilla sensor silencing – cell-based, Huh7 psiCHECK-miR122, Renilla luciferase, cherry-picked, dose response (AID 651956); type: functional;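 further: huh7 hepatoma cells stably carrying a psiCHECK-2 miR-122 sensor plasmid; renilla luciferase signal reporting endogenous miR-122 activity after 48 h compound exposure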
[11] = target: T4, High affinity choline transporter 1 (Homo sapiens, UniProt Q9GZV3); test: human choline transporter blockers, potency – cell-based, 5-point CRC, membrane potential dye, dose response (AID 504840); type: functional
T4 sequence (Q9GZV3 whole entry): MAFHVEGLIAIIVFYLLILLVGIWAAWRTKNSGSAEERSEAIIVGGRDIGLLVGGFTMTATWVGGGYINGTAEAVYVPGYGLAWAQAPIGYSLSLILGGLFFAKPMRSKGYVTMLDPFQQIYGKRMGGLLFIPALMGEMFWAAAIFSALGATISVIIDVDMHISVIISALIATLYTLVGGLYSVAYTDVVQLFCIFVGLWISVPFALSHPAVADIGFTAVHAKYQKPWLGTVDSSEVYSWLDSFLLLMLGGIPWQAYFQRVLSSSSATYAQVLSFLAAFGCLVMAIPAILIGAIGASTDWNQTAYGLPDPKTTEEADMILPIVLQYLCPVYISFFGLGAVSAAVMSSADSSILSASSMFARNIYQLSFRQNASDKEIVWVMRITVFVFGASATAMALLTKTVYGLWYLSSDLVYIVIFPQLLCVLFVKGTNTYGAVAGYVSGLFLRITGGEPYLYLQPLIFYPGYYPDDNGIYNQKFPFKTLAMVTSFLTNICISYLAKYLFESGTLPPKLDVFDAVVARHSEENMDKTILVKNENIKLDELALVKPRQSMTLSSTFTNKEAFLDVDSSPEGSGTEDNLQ

For `COc1ccc(NC(=O)C(C)Sc2nnc3c4c(nc(-c5ccc(OC)cc5)n23)CC(C)(C)OC4)cc1` (stereo not given), the EC50 [1] was 27 µM (active) and the EC50 [2] was 58.9 µM (active).

In the case of `O=C(N/N=C/c1ccccc1OC(=O)c1ccc2c(c1)OCO2)c1ccccc1`, the EC50 [1] is reported as 20.9 µM (active) and the EC50 [2] is reported as 18.9 µM (active).

With `O=C(NNC(=O)C1CCN(S(=O)(=O)c2ccc(Cl)cc2)CC1)c1ccccc1O` the AC50 [3] was 18.5 µM (active), the AC50 [4] was 63.1 µM (active) and the AC50 [5] was 6.86 µM (active).

For `Cc1ccc(S(=O)(=O)N2C[C@@H]3CCCC[C@@H]3[C@@H](C)[C@H]2c2cn(Cc3ccccc3)c3ncccc23)cc1`, the AC50 [3] was 1.92 µM (active), the AC50 [4] was 2.47 µM (active) and the AC50 [5] was 4.12 µM (active).

For `O=C(c1cccc(NS(=O)(=O)c2ccc(F)c(F)c2)c1)N1CCN(C(c2ccccc2)c2ccccc2)CC1`, the IC50 [6] was > 47.1 µM (inactive) and the EC50 [7] was > 53 µM (inactive).

For `Cc1cc(N2CCC(N(C)C3CCCC3)CC2)nc2cc(O)ccc12`, the AC50 [8] was 11.3 µM (active).

In the case of `CCc1ccc(N2C(=O)NC(=O)/C(=C\NCCN(CC)CC)C2=O)cc1`, the AC50 [3] is reported as > 70 µM (inactive) and the AC50 [5] is reported as 27.8 µM (active).

For `COc1ccccc1N1CCN(C(=O)C2CCCN(S(=O)(=O)c3ccc4c(c3)CCCN4C(C)=O)C2)CC1` (stereo not given), the AC50 [3] was 2.68 µM (active), the AC50 [4] was 50.9 µM (active) and the AC50 [5] was 1.15 µM (active).

In the case of `O=C(Nc1ccccc1C(F)(F)F)NC1(C(=O)N2CCOCC2)CCCCC1`, the IC50 [9] is reported as 4.66 µM (active).

With `O=C(CC(CC(=O)c1ccccc1)c1ccncc1)c1ccccc1` the IC50 [6] was > 47.1 µM (inactive) and the EC50 [7] was > 53 µM (inactive).

With `CCOc1ccc2nc(O)c(CN(Cc3cccs3)C(CC)c3nnnn3C(C)(C)CC)cc2c1` (stereo not given) the EC50 [1] was 4.69 µM (active) and the EC50 [2] was 5.11 µM (active).

In the case of `COCCn1nnnc1C(c1ccccc1)N1CCN(c2ccccc2)CC1` (stereo not given), the IC50 [6] is reported as > 47.1 µM (inactive) and the EC50 [7] is reported as > 53 µM (inactive).

In the case of `CCCCN(C(=O)c1ccc2c(c1)S(=O)(=O)N=C1CCCCCN12)c1c(N)n(CCCC)c(=O)[nH]c1=O`, the IC50 [6] is reported as > 47.1 µM (inactive) and the EC50 [7] is reported as > 53 µM (inactive).

In the case of `CC(C)C[C@@H](CN1CCCC1CN1C(=S)NC[C@@H]1Cc1ccc(O)cc1)N1C[C@H](Cc2ccc(O)cc2)N(CC2CCCCCC2)C1=S` (stereo not given in full), the AC50 [3] is reported as 18.8 µM (active), the AC50 [4] is reported as 22.7 µM (active) and the AC50 [5] is reported as 16.9 µM (active).

In the case of `Cc1ccn2c(=O)nc(SCC(=O)NCc3ccco3)nc2c1`, the IC50 [9] is reported as 10.8 µM (active).

With `COc1cccc(-c2ccc3c(c2)O[C@H](CN(C)C(=O)C2CCOCC2)[C@H](C)CN([C@@H](C)CO)S3(=O)=O)c1` the AC50 [10] was 6.42 µM (active).

With `O=[N+]([O-])c1ccc2nc(-c3ccccc3)n(OCc3ccc(Cl)cc3)c2c1` the IC50 [9] was 10.1 µM (active).

With `N=C(N)SCc1ccccn1` the IC50 [11] was 13.2 µM (active).

With `CN1C(=O)c2cc(NS(=O)(=O)c3ccc(Cl)cc3)ccc2OC[C@H]2O[C@H](CC(=O)N3CCc4ccccc4C3)CC[C@@H]21` the AC50 [10] was 14.8 µM (active).
